The test system of data set [1] is CD13- HT-29 human colon adenocarcinoma cells. Nature of the data set: In vitro cytostatic/cytotoxic effect, PrestoBlue viability. Format: cell-based. The source says:
(§1) Similarly to our previous study the antitumor effects of conjugates were examined in vitro on CD13+ HT-1080 human fibrosarcoma and on CD13− HT-29 human colon adenocarcinoma cells. Both cell types are integrin receptor positive. The effect of the new drug conjugates was compared with the toxicity of free Dau and our lead compound Dau=Aoa-GFLGK(c[KNGRE]-GG)-NH2 (K). The bioconjugates enter cancer cells most likely by receptor-mediated endocytosis (at least at lower micromolar concentration) followed by the release of the active metabolite Dau=Aoa-Gly-OH by lysosomal degradation. In contrast, free Dau enters the cells in an unspecific manner which might explain the lower antitumor effect of conjugates in comparison with the free drug. In this experiment we measured the cytostatic effect (6 h treatment and further 66 h incubation after washing out the compounds) and the cytotoxic effect (72 h treatment). The results are summarized in (Table 3). […] It seems that the replacement of Lys by the hydrophilic amino acid Ser is not favorite. However, the incorporation of hydrophobic amino acids was well accepted. The conjugate with bulky side chain in this position (Leu) had higher IC50 values that might be explained by sterical hindrance. […] The Nle containing conjugate presented similar activity on HT-1080 and higher activity on HT-29 cells compared to the control conjugate. It is worth mentioning that Nle has a linear hydrocarbon side chain with the same length as Lys, the amino functional group missing. To further characterize the biological activity of the conjugates, their lysosomal degradation and cellular uptake were studied.
(§2) HT-1080 was maintained in DMEM while HT-29 cells in RPMI (Sigma-Aldrich), respectively, supplemented with 10% FBS, 5 mmol/L glutamine, and 50 units/mL penicillin and streptomycin (Life Technologies). As described in [17] cells were seeded in 5000 cells/well density in 100 μL medium followed by an overnight incubation. The next day 100 μL of serially diluted drugs were added to the cells. For the measurements of cytostatic effect, drug containing medium was gently removed from the plates after 6 h incubation, fresh medium was added to each wells, and the plates were further incubated for additional 66 h (72 h in total). In the case of cytotoxicity measurements, the drug containing medium was on the cells for the full period of the 72 h assay. At 72 h, supernatant was removed from the cells, and viability was assessed by the PrestoBlue® reagent (Life Technologies), which was diluted in PBS to reach the concentration given in the manufacturer’s instruction.

For data set [2], the system named is CD13+ HT-1080 human fibrosarcoma cells. The description is as above. The format is cell-based.
Source text: as §1, §2

In another data set the test system is HT-29 cells. Briefly: Cellular uptake by flow cytometry. To be noted: 10 μM, 6 h, 37 °C; for Cellular uptake in HT-29 compared with HT-1080 cells: flow cytometry, comparison of the two cell lines; for Cellular uptake by HT-29 cells: FBS containing medium, flow cytometry (Dau fluorescence). The format is cell-based, human. From the text: (§3) Daunomycin is fluorescent therefore the cellular uptake of Dau containing conjugates can be followed by flow cytometry (Figure 2). The new conjugates were taken up by HT-29 cells in a higher amount than by HT-1080 cells. […] The low cytostatic/cytotoxic effects of conjugate 5 can be explained by the results of cellular uptake study.
(§4) Figure 2 (A) HT1080 and (B) HT-29 cells. Uptake of conjugate 1 (light green); 2 (red); 3 (light blue); 4 (pink); 5 (green); K (yellow). Empty control with purple color.
(§5) Analogous to the description in [17], prior to the treatment, HT-1080 and HT-29 cells were incubated overnight in cell culture medium (see above) followed by seeding at a 250.000 cells/well density. Peptide–drug conjugates were dissolved in FBS containing cell culture medium and added to the cells at 10 μM final concentration. After 6 h incubation at 37 °C the supernatant was removed, cells were washed with PBS and trypsinised with 0.1% trypsin (Gibco® by Life Technologies) for 10 minutes. Trypsinization was terminated with FBS containing medium, then cells were washed and suspended in serum free medium. For live/dead detection we used Zombie Violet reagent (Biolegend, San Diego CA). Samples were detected and analyzed by using an Attitude® Acoustic Focusing Cytometer (ThermoFischer Scientific).

Data set [3] in a line: Chemostability (Asn deamidation) of cyclic NGR peptide-daunomycin conjugates in complete cell culture medium. The format is physicochemical. Particulars: DMEM CM (10% FBS complete medium), 2% DMSO, 1 mg/mL, 37 °C, HPLC-MS, area under the curve. As for the experimental part:
The chemostability of cyclic NGR peptide–drug conjugates was studied under the treatment conditions used for the in vitro cytotoxicity experiments. Samples were taken at 0 min, 6 h and 72 h. The deamidation rate was evaluated by HPLC–MS. […] After 6 h, moderate rearrangement was observed which increased in time. However, 54–58% of the parent cyclic NGR conjugates were still intact after 72 h. […] Except deamidation no other decomposition could be observed during this study.
As described in [17] to check the chemical stability each of the drug conjugates were dissolved in DMSO (2% of the final volume), following the addition of 10% FBS (fetal bovine serum) containing complete cell culture medium (DMEM CM) up to the 1 mg/mL final concentration. Each conjugate was allowed to incubate at 37 °C. Samples were analyzed at experiment time of 0 h, 6 h and 72 h, respectively, and components were purified with Amicon Ultra Centrifugal Filters (cut off 10K Millipore). The membranes were washed with eluent A (HPLC), followed by 3 × 15 min centrifugation at 13000 rpm. The last step is the washing with eluent B (HPLC) 1 × 15 min, followed by lyophilization and concentration of the samples.

The next data set relates to HT-1080 cells. Nature of the data set: Cellular uptake by flow cytometry. To be noted: 10 μM, 6 h, 37 °C, FBS containing medium; flow cytometry (Dau fluorescence). The format is cell-based, human.
Source text: as §3, §4, §5

Data set [4] is described as follows: 10% FBS (fetal bovine serum) containing complete cell culture medium (DMEM CM). To be noted: 37 °C, up to 72 h.
Data set [5] is described as follows: Rat liver lysosomal homogenate. Particulars: 37 °C, up to 72 h.

We go through ten compounds from publication PMC5942373 (Beilstein Journal of Organic Chemistry, 2018).

Entries after “also recorded” stand apart in the source; their conditions may differ. Like-named read-outs stand apart in the source and are kept apart here. Positions of bridges follow the written chain, without caps; N, C: chain ends. Residues, ends and D or L forms follow the SMILES beside them. Chains are numbered I, II in the order given. *: point of attachment. Daunorubicin(13-NOCH2CO) = COc1cccc2c1C(=O)c1c(O)c3c(c(O)c1C2=O)C[C@@](O)(C(C)=NOCC(=O)*)C[C@@H]3O[C@H]1C[C@H](N)[C@H](O)[C@H](C)O1

With `COc1cccc2c1C(=O)c1c(O)c3c(c(O)c1C2=O)C[C@@](O)(C(C)=O)C[C@@H]3O[C@H]1C[C@H](N)[C@H](O)[C@H](C)O1` [Daunomycin], the IC50 in data set [1] (HT-29, 72 h, read-out: HT-29 (72 h) IC50) was determined as 100 ± 100 nM; in data set [1] (HT-29, read-out: HT-29 (6 h) IC50) it was 300 ± 200 nM; in data set [2] (HT-1080, 72 h, read-out: HT-1080 (72 h) IC50), 500 ± 200 nM; in data set [2] (HT-1080, read-out: HT-1080 (6 h) IC50) it was 1400 ± 600 nM.
`COc1cccc2c1C(=O)c1c(O)c3c(c(O)c1C2=O)C[C@@](O)(C(C)=NOCC(=O)NCC(=O)N[C@@H](Cc1ccccc1)C(=O)N[C@@H](CC(C)C)C(=O)NCC(=O)N[C@@H](CCCCNC(=O)CNC(=O)CNC(=O)[C@@H]1CCC(=O)N[C@@H](CC(C)C)C(=O)N[C@@H](CC(N)=O)C(=O)NCC(=O)N[C@@H](CCCNC(=N)N)C(=O)N1)C(N)=O)C[C@@H]3O[C@H]1C[C@H](N)[C@H](O)[C@H](C)O1` [compound 2, Dau=Aoa-GFLGK(c[CONH-LNGRE]-GG)-NH2]: the “Cellular uptake in HT-29 compared with HT-1080 cells” value with HT-29 cells is “significantly higher accumulation in HT-29 than in HT-1080 cells”.
On to `COc1cccc2c1C(=O)c1c(O)c3c(c(O)c1C2=O)C[C@@](O)(C(C)=NOCC(=O)NCC(=O)N[C@@H](Cc1ccccc1)C(=O)N[C@@H](CC(C)C)C(=O)NCC(=O)N[C@@H](CCCCNC(=O)CNC(=O)CNC(=O)[C@@H]1CCC(=O)N2CCC[C@H]2C(=O)N[C@@H](CC(N)=O)C(=O)NCC(=O)N[C@@H](CCCNC(=N)N)C(=O)N1)C(N)=O)C[C@@H]3O[C@H]1C[C@H](N)[C@H](O)[C@H](C)O1` [compound 4, Dau=Aoa-GFLGK(c[CONH-PNGRE]-GG)-NH2] (I: PNGREGG / II: {Daunorubicin(13-NOCH2CO)}-GFLGK-NH2; amide I:C-II:5; lactam I:N-I:5), for which, in data set [3] (6 h), the “Ratio of Asn-/Asp-/isoAsp-derivatives: DGR” value is listed as 14% and the “Ratio of Asn-/Asp-/isoAsp-derivatives: isoDGR” value stood at 13%. In addition, in data set [3] (6 h, % printed in b14 only), the “Ratio of Asn-/Asp-/isoAsp-derivatives: NGR” value was 73%. Moreover, in data set [3] (72 h), the “Ratio of Asn-/Asp-/isoAsp-derivatives: DGR” value is given as 46%, the “Ratio of Asn-/Asp-/isoAsp-derivatives: NGR” value is 19% and the “Ratio of Asn-/Asp-/isoAsp-derivatives: isoDGR” value stood at 35%. The “Cellular uptake by HT-1080 cells” value in the data set on HT-1080 cells is on record as “highest uptake”. In addition, in the data set on HT-29 cells, the “Cellular uptake by HT-29 cells” value is listed as “highest uptake” and the “Cellular uptake in HT-29 compared with HT-1080 cells” value is “significantly higher accumulation in HT-29 than in HT-1080 cells”.
Turning to `COc1cccc2c1C(=O)c1c(O)c3c(c(O)c1C2=O)C[C@@](O)(C(C)=NOCC(=O)NCC(=O)N[C@@H](Cc1ccccc1)C(=O)N[C@@H](CC(C)C)C(=O)NCC(=O)N[C@@H](CCCCNC(=O)CNC(=O)CNC(=O)[C@@H]1CCC(=O)N[C@@H](CO)C(=O)N[C@@H](CC(N)=O)C(=O)NCC(=O)N[C@@H](CCCNC(=N)N)C(=O)N1)C(N)=O)C[C@@H]3O[C@H]1C[C@H](N)[C@H](O)[C@H](C)O1` [compound 5, Dau=Aoa-GFLGK(c[CONH-SNGRE]-GG)-NH2], the “Cellular uptake by HT-1080 cells” value with HT-1080 cells is “did not enter”. For the same compound, the “Cellular uptake by HT-29 cells” value with HT-29 cells is given as “slightly higher cellular uptake”.
Dau=Aoa-GFLGK(c[CONH-ANGRE]-GG)-NH2: the fragment found result in data set [4] is “isoDGR, 6 h; also recorded: DGR, 72 h”. Further, in data set [5], the cleaved bond entry was “Gly-Phe, major, 6 h”.
Compound Dau=Aoa-GFLGK(c[CONH-KNGRE]-GG)-NH2 returned a not cleaved in data set [4] of 100% NGR form at 72 h.
As for Dau=Aoa-GFLGK(c[CONH-LNGRE]-GG)-NH2, the fragment found entry in data set [4] was “isoDGR, 6 h; also recorded: DGR, 72 h”. In data set [5], the cleaved bond entry is listed as “Gly-Phe, major, 6 h”.
Consider Dau=Aoa-GFLGK(c[CONH-NleNGRE]-GG)-NH2, for which, in data set [4], the fragment found result is recorded as “isoDGR, 6 h; also recorded: DGR, 6 h”. In data set [5], the cleaved bond entry was “Gly-Phe, major, 6 h”.
In the case of Dau=Aoa-GFLGK(c[CONH-PNGRE]-GG)-NH2, the fragment found result in data set [4] is listed as “isoDGR, 6 h; also recorded: DGR, 6 h”. Further, the cleaved bond entry in data set [5] is reported as “Gly-Phe, major, 6 h”.
Take Dau=Aoa-GFLGK(c[CONH-SNGRE]-GG)-NH2: the fragment found entry in data set [4] is “DGR, 72 h; also recorded: isoDGR, 6 h”. For the same compound, the cleaved bond entry in data set [5] is recorded as “Gly-Phe, major, 6 h”.
